The text below walks through data of patent US10760110B2, “Antibiotic testing and screening system” (priority 2017, dated 2020).

Assay [1] has as its system K. pneumoniae NVT1001 and its ΔompK35/36 and/or ΔramR mutants. Description: Etest MIC, OmpK35/36 loss and AcrAB-TolC overexpression (ΔramR) strains (Table 6). The class given is cell-based, Klebsiella pneumoniae. Conditions: Klebsiella pneumoniae. The essentials: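 MICs were read by Etest strip following the manufacturer's instructions, and values falling between standard two-fold dilutions were rounded up to the next two-fold step. Ceftazidime and cefotaxime were also tested by CLSI broth microdilution and interpreted against CLSI 2017 breakpoints; cephalothin used CLSI 2015 and moxifloxacin EUCAST 2017.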

In assay [2] the test system is K. pneumoniae NVT1001 ΔramRΔompK35/36 mutant and its revertants. Description: Etest MIC, ΔramRΔompK35/36 mutant and its revertants (Table 7). As to conditions: Klebsiella pneumoniae. The class given is cell-based.
Where [3] appears, read: ΔramRΔ35/36, ΔramRΔompK35/36 mutant.
The mark [4] stands for this setting: ΔramRΔompK35/36::ompK35/36 revertant.
[5] abbreviates: ΔramRΔompK35/36::ompK35 revertant.
[6] abbreviates: ΔramRΔompK35/36::ompK36 revertant.
Where [7] appears, read: ΔramRΔompK35/36::ramR revertant.
Where [8] appears, read: ΔramRΔompK35/36::ramR::ompK35/36 revertant.
Where [9] appears, read: ΔramRΔompK35/36::ramR::ompK35 revertant.
The mark [10] stands for this setting: ΔramRΔompK35/36::ramR::ompK36 revertant.

≈ marks a conversion by molar mass, not a printed value. Where two headings read alike, the source gives them in different places.

`CCn1cc(C(=O)O)c(=O)c2cc(F)c(N3CCNCC3)cc21` [Norfloxacin, norfloxacin]: the MIC (in general, the least concentration at which growth counts as inhibited) in assay [1] (WT, NVT1001, read-out: MIC) was 0.25 µg/mL (≈ 0.783 µM); in assay [1] (Δ35, ΔompK35 mutant) it was 0.25 µg/mL (≈ 0.783 µM); in assay [1] (Δ35/36, ΔompK35/36 mutant), 0.5 µg/mL (≈ 1.57 µM); in assay [1] (Δ36, ΔompK36 mutant), 0.25 µg/mL (≈ 0.783 µM); in assay [1] (ΔramR mutant) it was 2 µg/mL (≈ 6.26 µM); in assay [1] (ΔramRΔ35, ΔramRΔompK35 mutant), 2 µg/mL (≈ 6.26 µM). In addition, the MIC in assay [1] (setting [3]) is 2 µg/mL (≈ 6.26 µM); in assay [1] (ΔramRΔ36, ΔramRΔompK36 mutant), 2 µg/mL (≈ 6.26 µM); in assay [2] (setting [4]), 2 µg/mL; in assay [2] (setting [5]) it was 2 µg/mL; in assay [2] (setting [6]), 2 µg/mL; in assay [2] (setting [7]), 0.5 µg/mL. The MIC in assay [2] (setting [8]) amounted to 0.25 µg/mL; in assay [2] (setting [9]), 0.25 µg/mL; in assay [2] (setting [10]), 0.25 µg/mL; in assay [2] (ΔramRΔompK35/36 mutant), 2 µg/mL.
In the case of `CC1COc2c(N3CCN(C)CC3)c(F)cc3c(=O)c(C(=O)O)cn1c23` (centres unmarked) [Ofloxacin, ofloxacin], the MIC in assay [1] (WT, NVT1001, read-out: MIC) was 0.25 µg/mL (≈ 0.692 µM); in assay [1] (Δ35, ΔompK35 mutant), 0.25 µg/mL (≈ 0.692 µM); in assay [1] (Δ35/36, ΔompK35/36 mutant) it was 0.25 µg/mL (≈ 0.692 µM); in assay [1] (Δ36, ΔompK36 mutant) it was 0.25 µg/mL (≈ 0.692 µM); in assay [1] (ΔramR mutant) it was 2 µg/mL (≈ 5.53 µM); in assay [1] (ΔramRΔ35, ΔramRΔompK35 mutant), 2 µg/mL (≈ 5.53 µM). In addition, the MIC is 2 µg/mL (≈ 5.53 µM) in assay [1] (setting [3]); 2 µg/mL (≈ 5.53 µM) in assay [1] (ΔramRΔ36, ΔramRΔompK36 mutant); 2 µg/mL in assay [2] (setting [4]); 2 µg/mL in assay [2] (setting [5]); 2 µg/mL in assay [2] (setting [6]); 0.25 µg/mL in assay [2] (setting [7]). In addition, the MIC in assay [2] (setting [8]) is 0.25 µg/mL; in assay [2] (setting [9]), 0.25 µg/mL; in assay [2] (setting [10]), 0.25 µg/mL; in assay [2] (ΔramRΔompK35/36 mutant) it was 2 µg/mL.
`COc1c(N2C[C@@H]3CCCN[C@@H]3C2)c(F)cc2c(=O)c(C(=O)O)cn(C3CC3)c12` [Moxifloxacin, moxifloxacin]: the MIC in assay [1] (WT, NVT1001, read-out: MIC) was 0.125 µg/mL (≈ 0.311 µM); in assay [1] (Δ35, ΔompK35 mutant), 0.125 µg/mL (≈ 0.311 µM); in assay [1] (Δ35/36, ΔompK35/36 mutant) it was 0.125 µg/mL (≈ 0.311 µM); in assay [1] (Δ36, ΔompK36 mutant), 0.06 µg/mL (≈ 0.149 µM); in assay [1] (ΔramR mutant), 1 µg/mL (≈ 2.49 µM); in assay [1] (ΔramRΔ35, ΔramRΔompK35 mutant) it was 1 µg/mL (≈ 2.49 µM). Moreover, the MIC in assay [1] (setting [3]) was 1 µg/mL (≈ 2.49 µM); in assay [1] (ΔramRΔ36, ΔramRΔompK36 mutant) it was 1 µg/mL (≈ 2.49 µM); in assay [2] (setting [4]), 0.5 µg/mL; in assay [2] (setting [5]), 1 µg/mL; in assay [2] (setting [6]), 0.5 µg/mL; in assay [2] (setting [7]) it was 0.06 µg/mL. Moreover, the minimum inhibitory concentration (MIC) in assay [2] (setting [8]) stood at 0.125 µg/mL; in assay [2] (setting [9]), 0.06 µg/mL; in assay [2] (setting [10]), 0.125 µg/mL; in assay [2] (ΔramRΔompK35/36 mutant), 1 µg/mL.
`CCn1cc(C(=O)O)c(=O)c2ccc(C)nc21` [Nalidixic acid, nalidixic acid]: the minimal inhibitory concentration (MIC) in assay [1] (WT, NVT1001, read-out: MIC) worked out at 4 µg/mL (≈ 17.2 µM); in assay [1] (Δ35, ΔompK35 mutant) it was 8 µg/mL (≈ 34.4 µM); in assay [1] (Δ35/36, ΔompK35/36 mutant), 8 µg/mL (≈ 34.4 µM); in assay [1] (Δ36, ΔompK36 mutant), 4 µg/mL (≈ 17.2 µM); in assay [1] (ΔramR mutant), 32 µg/mL (≈ 138 µM); in assay [1] (ΔramRΔ35, ΔramRΔompK35 mutant), 64 µg/mL (≈ 276 µM). Also, the MIC turned out to be 32 µg/mL (≈ 138 µM) in assay [1] (setting [3]); 32 µg/mL (≈ 138 µM) in assay [1] (ΔramRΔ36, ΔramRΔompK36 mutant); 64 µg/mL in assay [2] (setting [4]); 32 µg/mL in assay [2] (setting [5]); 64 µg/mL in assay [2] (setting [6]); 8 µg/mL in assay [2] (setting [7]). Besides, the MIC in assay [2] (setting [8]) came out at 8 µg/mL; in assay [2] (setting [9]), 8 µg/mL; in assay [2] (setting [10]) it was 8 µg/mL; in assay [2] (ΔramRΔompK35/36 mutant), 32 µg/mL.
Turning to `C[C@H]1COc2c(N3CCN(C)CC3)c(F)cc3c(=O)c(C(=O)O)cn1c23` [Levofloxacin, levofloxacin], the MIC in assay [1] (WT, NVT1001, read-out: MIC) came to 0.06 µg/mL (≈ 0.166 µM); in assay [1] (Δ35, ΔompK35 mutant) it was 0.125 µg/mL (≈ 0.346 µM); in assay [1] (Δ35/36, ΔompK35/36 mutant) it was 0.125 µg/mL (≈ 0.346 µM); in assay [1] (Δ36, ΔompK36 mutant) it was 0.125 µg/mL (≈ 0.346 µM); in assay [1] (ΔramR mutant) it was 1 µg/mL (≈ 2.77 µM); in assay [1] (ΔramRΔ35, ΔramRΔompK35 mutant) it was 1 µg/mL (≈ 2.77 µM). Further, the MIC in assay [1] (setting [3]) was found to be 1 µg/mL (≈ 2.77 µM); in assay [1] (ΔramRΔ36, ΔramRΔompK36 mutant), 1 µg/mL (≈ 2.77 µM); in assay [2] (setting [4]) it was 0.5 µg/mL; in assay [2] (setting [5]), 1 µg/mL; in assay [2] (setting [6]) it was 0.5 µg/mL; in assay [2] (setting [7]) it was 0.125 µg/mL. The minimal inhibitory concentration (MIC) was found to be 0.06 µg/mL in assay [2] (setting [8]), 0.06 µg/mL in assay [2] (setting [9]), 0.125 µg/mL in assay [2] (setting [10]) and 1 µg/mL in assay [2] (ΔramRΔompK35/36 mutant).
